Assay results as given in BindingDB's records for patent US12226405 (Novartis, 2025).

Target: Endothelial PAS domain-containing protein 1 (Homo sapiens, UniProt Q99814)
Test: Scintillation Proximal Assay (SPA)
Procedure: Compounds (tested using a 14-point dose response with 3-fold compound dilutions from 100 μM to 60 pM) were pre-incubated for 30 min with HIF2α PAS-B domain (236-350, biotinylated on the N-terminus), before addition of the radio-ligand. […] Duplicates were made using 2 different plates, and mean IC50 values were determined using the Helios system based on the following equation: % inhibition=[(high control−sample)/(high control−low control)]×100. The IC50 values in the Tabulated HIF2α activities are the average from 1 to 10 independent experiments.

Chain of Endothelial PAS domain-containing protein 1 (Q99814 whole entry, the tested form may be a part): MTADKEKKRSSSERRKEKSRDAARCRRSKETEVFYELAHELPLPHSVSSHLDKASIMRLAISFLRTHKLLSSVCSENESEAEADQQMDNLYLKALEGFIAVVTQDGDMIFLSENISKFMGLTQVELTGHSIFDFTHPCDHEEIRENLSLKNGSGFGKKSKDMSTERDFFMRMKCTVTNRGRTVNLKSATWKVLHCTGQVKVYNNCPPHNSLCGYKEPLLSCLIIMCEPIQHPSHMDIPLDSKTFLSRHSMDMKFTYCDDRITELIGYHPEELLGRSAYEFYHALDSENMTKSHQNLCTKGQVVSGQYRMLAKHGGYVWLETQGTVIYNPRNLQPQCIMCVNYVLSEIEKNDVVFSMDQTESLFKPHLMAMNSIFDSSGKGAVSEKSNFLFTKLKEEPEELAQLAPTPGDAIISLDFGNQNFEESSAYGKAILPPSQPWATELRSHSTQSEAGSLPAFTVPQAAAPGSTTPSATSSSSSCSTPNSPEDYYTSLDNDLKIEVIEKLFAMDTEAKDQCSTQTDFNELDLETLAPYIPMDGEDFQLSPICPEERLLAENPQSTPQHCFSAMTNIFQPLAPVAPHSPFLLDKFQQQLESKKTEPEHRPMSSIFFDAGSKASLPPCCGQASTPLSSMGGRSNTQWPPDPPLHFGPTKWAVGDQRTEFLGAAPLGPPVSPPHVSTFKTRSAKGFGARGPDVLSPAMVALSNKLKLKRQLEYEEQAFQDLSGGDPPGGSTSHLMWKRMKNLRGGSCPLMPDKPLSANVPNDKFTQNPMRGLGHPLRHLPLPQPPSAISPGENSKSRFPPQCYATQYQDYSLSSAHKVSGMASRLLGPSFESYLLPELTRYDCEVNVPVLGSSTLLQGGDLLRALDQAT

- IC50: 8 nM
Compound: FC(F)OC1=CC(C(F)(F)F)=CN2C[C@@]3(CCc4cc(C(F)(F)F)ccc43)N=C12 [US12226405, Example 6]
